“Also recorded” adds a separate entry of the source. Read-outs that look alike come from different tables or passages of the source.
Experiments:
[1] = system: translation readthrough of PTC in exon 12 of BMPR2; type: cell-based; details: for population of dual-fluorescence cells (FACS): 293 cells transfected with pTN142; for ratio of DsRed-Express and GFP production (efficiency of readthrough), plate readers: fluorescence monochrome and filter plate readers, data not shown
Source text: (§1) (A) An outline of the single cell-based translation readthrough assay. The principle of the reporter system is similar to that mentioned in FIG. 2 with the exception that it contains a translation termination signal in the exon 12. In the event of translation termination at the internal PTC, a DsRed-Express protein will be generated whilst readthrough will produce a fusion dual-fluorescence protein (DsRed Express and GFP). Thus the ratio of two fluorescence intensities determines the efficiency of readthrough. […] (C) Cell expressing fluorescence proteins were analyzed with FACS. Cell transfected with pTN139 generated the highest population of dual-fluorescence cells (FIG. 5Civ), whilst pTN142 produced no or few dual-fluorescence cells. […] GFP (FIG. 5Cii) and DsRed-Express (FIG. 5Ciii) proteins expressing cells were used as fluorescence positive control, whilst untransfected cells (FIG. 5Ci) were used as negative control. (FIG. 5D) The outline of the enzymatic reporter was published elsewhere (Kollmus et al., 1996, Nasim et al., 2000). In brief, translation termination in the internal stop signal generates β-gal protein. In the event of readthrough, a β-gal-luciferase fusion protein will be produced. The ratio of these two proteins was used as the efficiency of readthrough event. For this purpose, two independent constructs were used in our experiment. Construct H8 (pBPLUGA; Kollmus et al., 1996) contains a 17 bp DNA fragment containing an in-frame stop signal. H8A construct (Nasim et al., 2000) is similar to H8 with the exception that it contains a 91 bp DNA fragment.
Single-cell based dual-fluorescence splicing assay constructs were generated by replacing exon 9 of plasmid pTN136 with exon 12 of BMPR2 gene using PCR mutagenesis (14). The resultant splicing unit was cloned into Xho I and Bam HI sites of DsRed Express-GFP vector (Siskoglu and Nasim, unpublished data) and designated as pTN139. Further plasmids pTN140, pTN141, pTN142 and pTN143 bearing mutations in exon 12 at position c.2292insA, c.2386delG, c.2620G>T and c.2695C>T, respectively were generated. A double intron splicing unit was constructed by fusing an additional splicing unit of HC9 (15) at the 3′end of the Ad-Exon 12 unit of pTN136. The splicing unit of HC9 comprises the last 17 nucleotides of the non-muscle exon (NM) of human TPM3 gene together with the following 80-nucleotide intron, which was joined to a fragment of human dystrophin gene containing the last 260 nucleotides of intron 11 followed by the 100 nucleotides of exon 12. The double-intron splicing unit was cloned into EcoRI and KpnI sites of DsRed-Express-GFP vector and designated as pTN153. Plasmid pTN155 is a derivative of pTN153 and harbours a mutation in exon 12 at position c.2386delG.
Gene Transfer, cell culture, enzymatic assay, fluorescence microscopy and fluorescence activated cell sorting (FACS) were carried as described elsewhere (11), (15), (17). Amount of plasmid DNA transfected into HEK293 cell line varied from (from 30 ng to 1 μg) assay to assay.
In addition to PAH, there are also more than 1800 genetic disorders caused by nonsense mutation. Two approaches are currently available to overcome nonsense-associated genetic diseases. […] The aim of other approach is to suppress pre-mature termination; in other words to promote translation readthrough. As the dual-fluorescence assay was successfully utilized to characterize the PTC, we next wished to investigate whether the system can be used to identify factors that promote translation readthrough. To achieve this, we introduced a nonsense mutation into the exon 12 of the BMPR2 gene in such a way that it incorporates a PTC (FIG. 5A). In the event of readthrough, a fusion dual-fluorescence protein (DsRed Express and GFP) will be produced, whilst translation termination generates only DsRed-Express protein. Thus the ratio of two fluorescence intensities determines the efficiency of readthrough. […]

[2] = system: translation readthrough of in-frame stop signal; assay: enzyme-based dual-reporter (β-gal-luciferase) readthrough assay, constructs H8 and H8A; type: cell-based
Source text: as §1, with “(FIG. 5D) The outline of the enzymatic reporter was published elsewhere (Kollmus et al., 1996, Nasim et al., 2000). In brief, translation termination in the internal stop signal generates β-gal protein.” left out, “For this purpose, two independent constructs were used in our experiment. Construct H8 (pBPLUGA; Kollmus et al., 1996) contains a 17 bp DNA fragment containing an in-frame stop signal. H8A construct (Nasim et al., 2000) is similar to H8 with the exception that it contains a 91 bp DNA fragment.” left out
To further validate the efficiency determined by fluorescence assays, we employed an enzyme-based reporter assay. […] In the event of translation termination, β-gal protein is generated, whilst readthrough produces a β-gal and luciferase fusion protein. […]

[3] = system: nonsense codon read-through; details: literature values; cited from earlier work
[4] = system: nonsense mediated RNA decay; assay: β-galactosidase reporter based NMD assay (gal-luc ratio) with PTC bearing double intron splicing unit; type: cell-based; details: reporter with c.2386delG or c.2292insA PTC, after treatment with translation/NMD inhibitor
Source text: (A) The test system for determining nonsense mediated RNA decay in mammalian cells based on the reporter gene encoding β-galactosidase, which was fused in-frame with the PTC (c.2386delG, c.2292insA) bearing recombinant double intron splicing unit (FIG. 4A). Plasmids bearing c.2292insA (pTN147) and c.2386delG (pTN148) mutations were transfected into HE 293 cells and grown in the presence or absence of NMD inhibitors including puromycin and cycloheximide. The treatments increased the gal-luc ratio of the reporter constructs between 5 and 20 fold (FIG. 4B) compared with untreated control. Compared with cells transfected with the reporter alone, the gal-luc ratio increased between 3 and 6 fold when hUpf1 RNA was knock down by RNAi (FIG. 4C).
Constructs for determining NMD were generated by fusing the double-intron splicing unit of pTN155 at the end of β-galactosidase reporter gene. The double-intron splicing intron was cloned in two steps into pBPLUGA (16). First the splicing unit of HC9 as described above was PCR amplified and cloned into KpnI and BamHI sites of pBPLUGA. The splicing unit of pTN136 was then cloned into SalI/XhoI and BamHI sites of the newly constructed plasmid and designated as pTN148. […]
Gene Transfer, cell culture, enzymatic assay, fluorescence microscopy and fluorescence activated cell sorting (FACS) were carried as described elsewhere (11), (15), (17). […]

[5] = system: translation readthrough of in-frame PTC; assay: swapped GFP-DsRedExpress dual-fluorescence readthrough assay, plate reader; type: cell-based; details: HEK293 cells, medium with 0.1% fetal bovine serum, 3-5 days, BMG Labtech plate reader
Source text: An outline of the dual-fluorescence reporter. The underlying principle of the reporter is similar to that mentioned above with the exception that the DsRed-express gene is located downstream of the GFP reporter (FIG. 7A). Following transfection the reporter harbouring an in-frame PTC produced only GFP protein (FIG. 7B). The reporter produced both GFP and DsRedExpress proteins following the exchange of the PTC to a sense codon.
A step-by-step outline of the translation readthrough assay (FIG. 8A).
A potential complication of the fluorescence approach was that of an autofluorescence which might interfere with the GFP fluorescence. To address this potential limitation, another set of vector was constructed. In this set of vectors the GFP and DsRed-Express reporters were swapped in such that the GFP is expressed regardless of translation readthrough, whilst the readthrough activates the expression of DsRed-Express protein (FIG. 7A). […] The reporter produced both GFP and DsRed-Express dual-fluorescences once the PTC codon was changed to a sense codon.
We next wished to determine the ratio of DsRed-Express and GFP production, which represents the efficiency of readthrough (FIG. 8A). […] The growth medium was discarded, cells were washed with PBS and the fluorescence intensities were determined using a fluorescence (BMG Labtech) plate reader.

Molecule | population of dual-fluorescence cells (FACS) [1] | ratio of DsRed-Express and GFP production (efficiency of readthrough), plate readers [1] | ratio of gal-luc activity (readthrough efficiency) [2] | increase in the reporter protein [4] [fold] | further results
CN[C@@H]1[C@@H](O)[C@@H](O[C@@H]2[C@@H](O)[C@H](O[C@H]3O[C@H]([C@@H](C)O)[C@@H](O)[C@H](O)[C@H]3N)[C@@H](N)C[C@H]2N)OC[C@]1(C)O [G418 sulphate] | markedly increased | promoted translation readthrough | promoted readthrough efficiency; also recorded: markedly increased | – | population of dual-fluorescence cells (FACS) ([1]; listed as G418): significantly high population of dual-fluorescence cells; dual-fluorescence of cells ([1]; 293 cells, PTC construct, 5 days after treatment): generated dual-fluorescence
O=C(O)c1cccc(-c2noc(-c3ccccc3F)n2)c1 [PTC124] | – | – | – | – | read-through efficiencies [3]: 2-10%
C[C@@H]1C[C@@H]([C@H](O)CC2CC(=O)NC(=O)C2)C(=O)[C@@H](C)C1 [cycloheximide] | – | – | – | 5 | –
COc1ccc(C[C@H](N)C(=O)N[C@H]2[C@@H](O)[C@H](n3cnc4c(N(C)C)ncnc43)O[C@@H]2CO)cc1 [puromycin] | – | – | – | 20 | –
gentamicin | significantly high population of dual-fluorescence cells; also recorded: markedly increased | promoted translation readthrough | promoted readthrough efficiency | – | ratio of GFP and DsRedExpress fluorescence intensities (efficiency of readthrough) [5]: promoted the ratio of GFP and DsRedExpress fluorescence intensities; also recorded: promoted translation readthrough
